# From PubChem BioAssay (NCI)
#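 Exposure lasted 48 hours, with cells grown in 96-well plates and compounds tested at five concentrations. Definition used: TGI = concentration required for complete inhibition of growth.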
# Tests used:
# Assay in all cases: NCI anticancer screen, dose series, 48 h
# [1] = tested on: 786-0 renal
# [2] = tested on: A549 NSCLC
# [3] = tested on: ACHN renal
# [4] = tested on: CAKI-1 renal
# [5] = tested on: CCRF-CEM leukemia
# [6] = tested on: COLO 205 colon
# [7] = tested on: DLD-1 colon
# [8] = tested on: DMS 114 small cell lung
# [9] = tested on: DMS 273 small cell lung
# [10] = tested on: EKVX NSCLC
# [11] = tested on: HCC-2998 colon
# [12] = tested on: HCT-116 colon
# [13] = tested on: HCT-15 colon
# [14] = tested on: HOP-62 NSCLC
# [15] = tested on: HOP-92 NSCLC
# [16] = tested on: IGROV1 ovarian
# [17] = tested on: K-562 leukemia
# [18] = tested on: KM12 colon
# [19] = tested on: KM20L2 colon
# [20] = tested on: LOX IMVI melanoma
# [21] = tested on: LXFL 529 NSCLC
# [22] = tested on: M19-MEL melanoma
# [23] = tested on: MOLT-4 leukemia
# [24] = tested on: NCI-H226 lung
# [25] = tested on: NCI-H23 lung
# [26] = tested on: NCI-H522 lung
# [27] = tested on: OVCAR-3 ovarian
# [28] = tested on: OVCAR-4 ovarian
# [29] = tested on: OVCAR-5 ovarian
# [30] = tested on: OVCAR-8 ovarian
# [31] = tested on: RPMI-8226 leukemia
# [32] = tested on: RXF 393 renal
# [33] = tested on: RXF-631 renal
# [34] = tested on: SF-268 CNS
# [35] = tested on: SF-295 CNS
# [36] = tested on: SF-539 CNS
# [37] = tested on: SK-MEL-2 melanoma
# [38] = tested on: SK-MEL-28 melanoma
# [39] = tested on: SK-MEL-5 melanoma
# [40] = tested on: SK-OV-3 ovarian
# [41] = tested on: SN12C renal
# [42] = tested on: SNB-19 CNS
# [43] = tested on: SR leukemia
# [44] = tested on: SW-620 colon
# [45] = tested on: TK-10 renal
# [46] = tested on: U251 CNS
# [47] = tested on: UACC-62 melanoma
# [48] = tested on: UO-31 renal
# [49] = tested on: A498 renal
# [50] = tested on: HL-60(TB) leukemia
# [51] = tested on: HOP-18 NSCLC
# [52] = tested on: HT29 colon
# [53] = tested on: M14 melanoma
# [54] = tested on: MALME-3M melanoma
# [55] = tested on: NCI-H460 lung
# [56] = tested on: SNB-75 CNS
# [57] = tested on: SNB-78 CNS
# [58] = tested on: UACC-257 melanoma
compound,measurement,setting,value
COc1ccc(NC(=O)CC(=O)n2nc(-c3ccccc3)c(N=Nc3ccccc3C(=O)O)c2-c2ccccc2)cc1,TGI,[1],70.8 µM
same,TGI,[2],> 100 µM
same,TGI,[3],> 100 µM
same,TGI,[4],> 100 µM
same,TGI,[5],> 100 µM
same,TGI,[6],> 100 µM
same,TGI,[7],> 100 µM
same,TGI,[8],> 100 µM
same,TGI,[9],> 100 µM
same,TGI,[10],> 100 µM
same,TGI,[11],> 100 µM
same,TGI,[12],> 100 µM
same,TGI,[13],> 100 µM
same,TGI,[14],> 100 µM
same,TGI,[15],41.4 µM
same,TGI,[16],> 100 µM
same,TGI,[17],> 100 µM
same,TGI,[18],> 100 µM
same,TGI,[19],> 100 µM
same,TGI,[20],> 100 µM
same,TGI,[21],> 100 µM
same,TGI,[22],> 100 µM
same,TGI,[23],> 100 µM
same,TGI,[24],> 100 µM
same,TGI,[25],> 100 µM
same,TGI,[26],> 100 µM
same,TGI,[27],> 100 µM
same,TGI,[28],> 100 µM
same,TGI,[29],> 100 µM
same,TGI,[30],78.9 µM
same,TGI,[31],> 100 µM
same,TGI,[32],90.7 µM
same,TGI,[33],> 100 µM
same,TGI,[34],> 100 µM
same,TGI,[35],> 100 µM
same,TGI,[36],> 100 µM
same,TGI,[37],> 100 µM
same,TGI,[38],> 100 µM
same,TGI,[39],> 100 µM
same,TGI,[40],31.8 µM
same,TGI,[41],> 100 µM
same,TGI,[42],> 100 µM
same,TGI,[43],> 100 µM
same,TGI,[44],> 100 µM
same,TGI,[45],> 100 µM
same,TGI,[46],> 100 µM
same,TGI,[47],> 100 µM
same,TGI,[48],> 100 µM
COc1cc([C@@H]2c3cc4c(cc3[C@@H](NC(=O)c3cccc(C#N)c3)C3COC(=O)[C@@H]32)OCO4)cc(OC)c1O (some centres undefined),TGI,[1],> 100 µM
same,TGI,[49],4.98 µM
same,TGI,[2],2.51 µM
same,TGI,[3],1.98 µM
same,TGI,[4],16.3 µM
same,TGI,[5],> 100 µM
same,TGI,[6],> 100 µM
same,TGI,[7],16.8 µM
same,TGI,[9],13.8 µM
same,TGI,[10],7.49 µM
same,TGI,[11],6.34 µM
same,TGI,[12],12.7 µM
same,TGI,[13],24.5 µM
same,TGI,[50],12.3 µM
same,TGI,[51],> 100 µM
same,TGI,[15],9.89 µM
same,TGI,[52],11.5 µM
same,TGI,[16],6.54 µM
same,TGI,[17],> 100 µM
same,TGI,[18],5.21 µM
same,TGI,[19],7.53 µM
same,TGI,[20],10.5 µM
same,TGI,[21],> 100 µM
same,TGI,[53],> 100 µM
same,TGI,[54],5.18 µM
same,TGI,[23],33 µM
same,TGI,[24],0.67 µM
same,TGI,[25],0.811 µM
same,TGI,[55],2.53 µM
same,TGI,[26],3.16 µM
same,TGI,[27],8.74 µM
same,TGI,[28],> 100 µM
same,TGI,[29],25.5 µM
same,TGI,[30],14.6 µM
same,TGI,[31],29.4 µM
same,TGI,[32],45.5 µM
same,TGI,[33],14.6 µM
same,TGI,[34],> 100 µM
same,TGI,[36],1.56 µM
same,TGI,[37],8.83 µM
same,TGI,[38],> 100 µM
same,TGI,[39],13.6 µM
same,TGI,[41],1.81 µM
same,TGI,[42],8.62 µM
same,TGI,[56],4.85 µM
same,TGI,[57],> 100 µM
same,TGI,[44],17.8 µM
same,TGI,[45],7.86 µM
same,TGI,[46],1.81 µM
same,TGI,[58],> 100 µM
same,TGI,[47],2.95 µM
same,TGI,[48],19.2 µM
CC1(C)CCCC2(C)[C@@H]1CC[C@@]13CC(=O)[C@@](C)(CC[C@@H]21)C3 (some centres undefined),TGI,[1],> 100 µM
same,TGI,[2],> 100 µM
same,TGI,[3],> 100 µM
same,TGI,[4],> 100 µM
same,TGI,[5],> 100 µM
same,TGI,[6],> 100 µM
same,TGI,[7],> 100 µM
same,TGI,[8],> 100 µM
same,TGI,[9],> 100 µM
same,TGI,[11],> 100 µM
same,TGI,[12],> 100 µM
same,TGI,[13],> 100 µM
same,TGI,[50],> 100 µM
same,TGI,[14],> 100 µM
same,TGI,[15],> 100 µM
same,TGI,[52],76.3 µM
same,TGI,[16],> 100 µM
same,TGI,[17],> 100 µM
same,TGI,[18],> 100 µM
same,TGI,[19],> 100 µM
same,TGI,[20],> 100 µM
same,TGI,[21],> 100 µM
same,TGI,[53],> 100 µM
same,TGI,[22],89.6 µM
same,TGI,[54],> 100 µM
same,TGI,[23],> 100 µM
same,TGI,[24],> 100 µM
same,TGI,[25],> 100 µM
same,TGI,[55],> 100 µM
same,TGI,[26],82.5 µM
same,TGI,[27],> 100 µM
same,TGI,[28],> 100 µM
same,TGI,[29],> 100 µM
same,TGI,[30],> 100 µM
same,TGI,[31],> 100 µM
same,TGI,[32],62.8 µM
same,TGI,[33],> 100 µM
same,TGI,[34],> 100 µM
same,TGI,[35],> 100 µM
same,TGI,[36],> 100 µM
same,TGI,[38],> 100 µM
same,TGI,[39],> 100 µM
same,TGI,[40],> 100 µM
same,TGI,[41],> 100 µM
same,TGI,[42],> 100 µM
same,TGI,[56],> 100 µM
same,TGI,[57],> 100 µM
same,TGI,[43],> 100 µM
same,TGI,[44],> 100 µM
same,TGI,[45],> 100 µM
same,TGI,[46],> 100 µM
same,TGI,[58],97.3 µM
same,TGI,[47],> 100 µM
same,TGI,[48],> 100 µM
